CLint scaled data for 4 compounds are collected here from ChEMBL document CHEMBL1136854, “Synthesis and pharmacological evaluation of aminopyrimidine series of 5-HT1A partial agonists” (Bioorg Med Chem Lett, 2009).

The series can be described thus: in vitro. The settings on record: human, liver microsomes. (Microsomes from liver hold many membrane-bound enzymes, among them those of drug oxidation.)

As usually defined, the CLint scaled is the rate of metabolic loss divided by the concentration. High values mean rapid turnover, low ones slow turnover.

The compound `Fc1cccc2c(CCN3CCCC(c4ccnc(NC5CC5)n4)C3)c[nH]c12` (centres undefined) displayed a CLint scaled (CL) of 28 mL/min/kg.

Compound `O=C1CC2(CCCC2)CC(=O)N1CCCCN1CCN(c2ncccn2)CC1` [BUSPIRONE] displayed an intrinsic clearance (CLint scaled) (CL) of 148 mL/min/kg.

`c1cc(C2CCCN(CCc3cscn3)C2)nc(NC2CC2)n1` (centres undefined) displayed a CLint scaled of 15 mL/min/kg.

Turning to `Cc1[nH]c2ccc(Cl)cc2c1CCN1CCCC(c2ccnc(NC3CC3)n2)C1` (centres undefined), the CLint scaled (CL) was 135 mL/min/kg.
